# According to patent US12145947B2, “Pyrimidine based modulators and uses thereof” (Quanta Therapeutics, Inc., priority 2022, dated 2024):
# Like-named read-outs stand apart in the source and are kept apart here.
# What was measured:
# [1] = molecular target: T1, GST-tagged KRAS-G12D (2-169) (Homo sapiens, UniProt P01116, G12D); test: Nucleotide exchange assay (NEA), SOS-mediated, HTRF, KRAS G12D; format: biochemical; details: Table 4, IC50 extracted at 30 min
# T1 construct: GST-tagged KRAS-G12D (2-169, Reaction Biology, MSC-11-539); purchased Reaction Biology MSC-11-539 (KRAS G12D); MSC-11-502 (SOS1cat)
# How it was run: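 GST-KRAS-G12D (2-169, 5 nM final) with Tb-anti-GST donor was preincubated with compound 1 h at RT (pH 7.3 HEPES buffer, MgCl2, DTT), then SOScat (564-1049, 20 nM) and GTP-DY-647P1 (150 nM) were added. HTRF was read at RT; % inhibition vs DMSO/no-SOS blank, 4-parameter IC50 taken at 30 min.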
# [2] = test system: AGS cells (KRAS G12D), phospho-ERK; test: pERK In Cell Western (ICW) assay (Method B), AGS cells; format: cell-based; details: Table 4, pERK, 3 hours, read-out: ICW-AGS
# How it was run: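 GP2D (10,000 cells/well) and AGS (5,000 cells/well) cells were treated for 3 h at 37 °C with a 10-point, ½-log dilution series (top […]). They were then fixed and immunostained for phospho-ERK. pERK signal was normalised to DRAQ5 and expressed as % of DMSO, with IC50 from a 4-parameter fit.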
# T1 sequence (P01116 2-169 isoform P01116-2 G12D): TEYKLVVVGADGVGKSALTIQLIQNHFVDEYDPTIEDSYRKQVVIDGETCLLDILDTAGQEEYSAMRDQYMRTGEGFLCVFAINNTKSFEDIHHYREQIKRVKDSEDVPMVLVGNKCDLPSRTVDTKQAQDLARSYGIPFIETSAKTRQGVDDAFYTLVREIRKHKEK
SMILES,IC50 [1],IC50 ([2]; Homo sapiens),IC50 ([1]; listed as 74.1),IC50 [2]
"CN(CCOc1nc(N2C[C@H]3CC[C@@H](C2)N3)c(C#N)c(N2CC3(CCc4sc(N)c(C#N)c43)C2)n1)C1CCC1 [Compound 48, 2-amino-1′-[5-cyano-2-[2-[cyclobutyl(methyl)amino]ethoxy]-6-[(1R,5S)-3,8-diazabicyclo[3.2.1]octan-3-yl]pyrimidin-4-yl]spiro[5,6-dihydrocyclopenta[b]thiophene-4,3′-azetidine]-3-carbonitrile]",0.01 to 0.1 µM,1 to 10 µM,–,–
"CN(C)CC1(COc2nc(N3C[C@H]4CC[C@@H](C3)N4)c(C#N)c(N3CC4(CCc5sc(N)c(C#N)c54)C3)n2)COC1 [Compound 52, 2-amino-1′-[5-cyano-6-[(1R,5S)-3,8-diazabicyclo[3.2.1]octan-3-yl]-2-[[3-[(dimethylamino)methyl]oxetan-3-yl]methoxy]pyrimidin-4-yl]spiro[5,6-dihydrocyclopenta[b]thiophene-4,3′-azetidine]-3-carbonitrile]",< 0.01 µM,0.1 to 1 µM,–,–
"N#Cc1c(N2CCCn3nc(C(=O)C4CC4)c(Cl)c3C2)nc(OC[C@@]23CCCN2C[C@H](F)C3)nc1N1CC2(CCc3sc(N)c(C#N)c32)C1 [Compound 62, 2-amino-1′-[6-[3-chloro-2-(cyclopropanecarbonyl)-4,6,7,8-tetrahydropyrazolo[1,5-a][1,4]diazepin-5-yl]-5-cyano-2-[[(2R,8S)-2-fluoro-1,2,3,5,6,7-hexahydropyrrolizin-8-yl]methoxy]pyrimidin-4-yl]spiro[5,6-dihydrocyclopenta[b]thiophene-4,3′-azetidine]-3-carbonitrile]",< 0.01 µM,0.01 to 0.1 µM,–,–
"N#Cc1c(N2C[C@H]3CC[C@@H](C2)N3)nc(OCC2(CN3CCOCC3)CC2)nc1N1CC2(CCCCc3sc(N)c(C#N)c32)C1 [Compound 70, 2-amino-1′-[5-cyano-2-[[1-(morpholinomethyl)cyclopropyl]methoxy]-6-[(1R,5S)-3,8-diazabicyclo[3.2.1]octan-3-yl]pyrimidin-4-yl]spiro[5,6,7,8-tetrahydrocyclohepta[b]thiophene-4,3′-azetidine]-3-carbonitrile]",< 0.01 µM,0.01 to 0.1 µM,–,–
"CN(C)CC1(COc2nc(N3CC4CCC(C3)N4)c(C#N)c(N3CC4(CCc5sc(N)c(C#N)c54)C3)n2)CC1(F)F (centres unmarked) [Compound 74A, 2-amino-1′-[5-cyano-6-(3,8-diazabicyclo[3.2.1]octan-3-yl)-2-[[(1*)-1-[(dimethylamino)methyl]-2,2-difluoro-cyclopropyl]methoxy]pyrimidin-4-yl]spiro[5,6-dihydrocyclopenta[b]thiophene-4,3′-azetidine]-3-carbonitrile]",–,–,< 0.01 µM,0.001 to 0.01 µM
"N#Cc1c(N2C[C@H]3CC[C@@H](C2)N3)nc(OCc2ccn[nH]2)nc1N1CC2(CCc3sc(N)c(C#N)c32)C1 [Compound 79, 2-amino-1′-[5-cyano-6-[(1R,5S)-3,8-diazabicyclo[3.2.1]octan-3-yl]-2-(1H-pyrazol-5-ylmethoxy)pyrimidin-4-yl]spiro[5,6-dihydrocyclopenta[b]thiophene-4,3′-azetidine]-3-carbonitrile]",< 0.01 µM,0.01 to 0.1 µM,–,–
"CN1CCN(CC2(COc3nc(N4C[C@H]5CC[C@@H](C4)N5)c(C#N)c(N4CC5(CCc6sc(N)c(C#N)c65)C4)n3)CC2)CC1=O [Compound 80, 2-amino-1′-[5-cyano-2-[[1-[(4-methyl-3-oxo-piperazin-1-yl)methyl]cyclopropyl]methoxy]-6-[(1R,5S)-3,8-diazabicyclo[3.2.1]octan-3-yl]pyrimidin-4-yl]spiro[5,6-dihydrocyclopenta[b]thiophene-4,3′-azetidine]-3-carbonitrile]",< 0.01 µM,0.01 to 0.1 µM,–,–
